pIC50: −log10 of the molar value. Like-named read-outs stand apart in the source and are kept apart here.
Legend:
[1] = system: PC3 (AR negative prostate Ca); test: Cell cytotoxicity analysis (MTT), PC3; type: cell-based; conditions: Homo sapiens, 120 h, PC3, five days
Excerpt: (§1) The method of Alley et al. (1988) was followed. Briefly, prior to cytotoxicity screening a growth curve was constructed for each tumour line to be screened to determine growth kinetics, optimal seeding density to yield logarithmic growth over five days, and the corresponding lag time. Spent culture medium was aspirated from a sub-confluent adherent monolayer culture (T-75), the cells trypsinised and resuspended in a minimal volume of culture medium. After counting cells, a 96-well plate was seeded at an appropriate density (100 μl) to yield optimal growth parameters and the plate was then incubated at 37° C. under 5% CO2. After the pre-determined lag-time the plate was treated with either vehicle (negative control) or serial dilutions of the test compound prepared in culture medium, and then incubated for a further five days. MTT (0.5 mg/ml) prepared in PBS was added to all wells and incubated at 37° C. for ˜3 hr. Spent medium was then carefully aspirated and DMSO (150 μt) was added to solubilise cells and the reduced formazan. Absorbance was then read on a SpectraMax plate reader at 570 nm and viable cells in treated plates were expressed as a percentage of cells in control plates.

[2] = system: LNCaP (AR positive Prostate Ca); test: Cell cytotoxicity analysis (MTT), LNCaP; type: cell-based; conditions: Homo sapiens
Excerpt: as §1

[3] = system: DU145 (AR negative prostate Ca); test: Cell cytotoxicity analysis (MTT), DU145; type: cell-based; conditions: Homo sapiens
Excerpt: as §1

[4] = system: MDA-MB-468 (ER negative breast Ca); test: Cell cytotoxicity analysis (MTT), MDA-MB-468; type: cell-based; conditions: Homo sapiens, 120 h, MDA-MB-468, five days
Excerpt: as §1

[5] = system: NCI-H460 (large cell lung Ca); test: Cell cytotoxicity analysis (MTT), NCI-H460; type: cell-based; conditions: Homo sapiens
Excerpt: as §1

[6] = system: testosterone-induced LNCaP proliferation; test: Androgen inhibition study: testosterone-induced LNCaP proliferation; type: cell-based, human; conditions: for fold better than Cpd. 1 at inhibiting testosterone-induced proliferation: relative to Cpd. 1
Method: The method of Negri-Cesi and Motta (1994) and Negri-Cesi et al. (1999) was followed. Briefly, LNCaP cells were cultured in RPMI supplemented with 10% fetal calf serum and 2 mM L-glutamine at 37° C. under 5% CO2. At day 0 a subconfluent LNCaP culture flask (80%) were harvested by trypsinisation, washed, resuspended in RPMI media completed with charcoal stripped fetal calf serum (RPMIi) and seeded into 12 well plates at 30,000 cells per well (15,000 cells/mL). The plates were cultured at 37° C. with 5% CO2 for 48 hours. On day 2, spent media was carefully aspirated from all plates and then replenished with 2 ml RPMIi containing either testosterone (0.5 pM) as positive control, testosterone plus finasteride (1 uM) as inhibitor control and vehicle as growth control (equivalent concentration of DMSO). Test plates were treated as described above; only serial dilutions of test compounds prepared in RPMIi were used. Concentrations of test compound were chosen based on their cytotoxicity profile as determined in the cell cytotoxicity analysis methods section above i.e. the top concentration used in the LNCaP proliferation assay was determined as the concentration at which cells first appear close to 100% viable along the cytotoxicity curve. This concentration was chosen to ensure that any inhibition of proliferation imparted by the test agent was due to the inhibition of 5′AR and not due to direct killing of the cells. It is important not to disturb cell monolayer during the addition of treatments. On days 5 and 8 the process followed on day 2 was repeated for all plates. On day 11 spent media was aspirated from all wells, cells were washed gently with PBS (500 μl), trypsinised and the cells in each well counted using a haemocytometer. The average cell count and standard deviation was calculated and the result expressed as the % inhibition of testosterone-induced proliferation in comparison with vehicle control.

COX = COX inhibition screening assay in LPS-stimulated monocytes (prostaglandin radioimmunoassay); type: cell-based; conditions: 10 μM, human monocytes
Method: (§2) Human buffy coats were obtained from the Red Cross Blood Bank. Buffy coat (50 ml) was diluted 1:2 with sterile phosphate buffered saline (PBS), overlayed onto Lymphoprep density gradient medium and centrifuged at 800 g for 20 min. The mononuclear cell (MNC) layer was removed and washed with PBS and monocyte enriched cells were prepared from MNC by counter-current centrifugal elutriation. Monocytes were then resuspended in RPMI tissue culture medium with 10% foetal calf serum at 1.5×10^6 cells/ml. Test analogues were prepared in DMSO and incubated with monocytes at 37° for 30 min at either 10 or 100 μM. After the 30 min pre-incubation, bacterial lipopolysaccharide (LPS) was added (200 ng/ml) and cells were incubated for a further 18 h at 37° in 5% CO2. After centrifugation, cell-free supernatants were then removed and assayed for either prostaglandin or thromboxane production, as determined by radioimmunoassay. Because TXA2 is labile in aqueous medium, TXB2, the stable hydrolysis product of TXA2, was measured. For each dose (0, 10, 100 μM), incubations were performed in triplicate. Results are expressed as mean±SD, n=3. ANOVA followed by Newman-Keuls multiple comparisons test was used to examine differences between doses and the control values.

thromboxane synthase = molecular target: T1, thromboxane synthase (Homo sapiens, UniProt P24557); test: Thromboxane synthase inhibition screening assay in LPS-stimulated monocytes (TXB2 radioimmunoassay); type: cell-based
T1 construct: endogenous in cells; host or cells: human peripheral blood monocytes (elutriated from buffy coat), LPS-stimulated
T1 sequence (P24557 1-533): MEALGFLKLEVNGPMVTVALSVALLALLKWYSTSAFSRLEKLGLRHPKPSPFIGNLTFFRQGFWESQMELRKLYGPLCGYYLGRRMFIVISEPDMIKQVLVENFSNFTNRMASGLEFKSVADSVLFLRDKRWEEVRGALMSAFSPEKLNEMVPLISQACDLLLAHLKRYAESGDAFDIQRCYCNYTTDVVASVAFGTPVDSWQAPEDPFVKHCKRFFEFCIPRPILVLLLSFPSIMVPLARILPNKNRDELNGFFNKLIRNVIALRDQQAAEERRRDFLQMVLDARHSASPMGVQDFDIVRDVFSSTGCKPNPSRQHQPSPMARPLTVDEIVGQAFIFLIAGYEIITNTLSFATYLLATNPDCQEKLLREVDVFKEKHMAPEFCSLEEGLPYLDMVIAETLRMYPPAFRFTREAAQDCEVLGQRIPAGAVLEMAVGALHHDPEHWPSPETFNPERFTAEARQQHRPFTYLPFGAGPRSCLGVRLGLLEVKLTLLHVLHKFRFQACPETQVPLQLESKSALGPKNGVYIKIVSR
Method: as §2

all cell lines tested = test: Cell cytotoxicity analysis (MTT), statements over the cell lines tested; type: cell-based, human; conditions: for overall cell killing activity against all cell lines tested: comparison of Cpd. 1, 2 and 3
Excerpt: as §1

[7] = 120 h, LNCaP, five days, MTT, read-out: Cytotoxicity LNCaP Avg.
[8] = 120 h, DU-145, five days, MTT, read-out: Cytotoxicity DU-145 Avg.
[9] = DU-145, read-out: IC50 against DU-145
[10] = 120 h, NCI-H460, five days, MTT, read-out: Cytotoxicity NCI-H460 Avg.
[11] = Homo sapiens, LNCaP, read-out: IC50 inhibition of testosterone-induced LNCaP proliferation
[12] = Homo sapiens, LNCaP, read-out: IC50 inhibition of testosterone-induced proliferation

Oc1ccc(C2COc3cc(O)ccc3C2=NNc2ccccc2)cc1 (stereo not shown) [Cpd. 1]
pIC50 [1]: 4.47 | pIC50 [2, 7]: 4.79 | pIC50 ([2]; read-out: IC50 against LNCaP): 4.79 | pIC50 [3, 8]: 4.86 | pIC50 [3, 9]: 4.86 | pIC50 [4]: 4.46 | pIC50 [5, 10]: 4.56 | pIC50 [6, 11]: 5.65 | pIC50 [6, 12]: 5.65 | inhibition of COX activity (COX): 100% | inhibition at 10 µM (thromboxane synthase): 33% | pIC50 (all cell lines tested; Homo sapiens, cell lines other than LNCaP and DU-145, read-out: Modest activity against the other cell lines tested): < 4.70

CC(C)(C)NC(=O)[C@H]1CC[C@H]2[C@@H]3CC[C@H]4NC(=O)C=C[C@]4(C)[C@H]3CC[C@]12C [finasteride, reference compound]
blocking of testosterone-induced proliferation ([6]; 1 μM, inhibitor control): potently blocked

O=[N+]([O-])c1ccc(NN=C2c3ccc(O)cc3OCC2c2ccc(O)cc2)cc1 (stereo not shown) [Cpd. 2]
pIC50 [1]: 4.35 | pIC50 [2, 7]: 4.29 | pIC50 [3, 8]: 4.34 | pIC50 [4]: 4.58 | pIC50 [5, 10]: 4.49 | pIC50 [6, 11]: > 7.46 | IC50 ([6]; Homo sapiens, LNCaP, read-out: IC50 inhibition of testosterone-induced proliferation (nM)): < 37 nM | fold better than Cpd. 1 at inhibiting testosterone-induced proliferation [6]: ~60 fold | inhibition of COX activity (COX): 77% | inhibition at 10 µM (thromboxane synthase): 27% | overall cell killing activity against all cell lines tested (all cell lines tested): lowest activity

Cc1ccc(NN=C2c3ccc(O)cc3OCC2c2ccc(O)cc2)cc1 (stereo not shown) [Cpd. 3]
pIC50 [1]: 4.55 | pIC50 [2, 7]: 4.79 | pIC50 ([2]; read-out: IC50 against LNCaP): 4.79 | pIC50 [3, 8]: 4.72 | pIC50 [3, 9]: 4.72 | pIC50 [4]: 4.65 | pIC50 ([5]; NCI-H460, read-out: activity against NCI-H460): 4.88 | pIC50 [6, 11]: 6.17 | pIC50 [6, 12]: 6.17 | fold better than Cpd. 1 at inhibiting testosterone-induced proliferation [6]: 3 fold | inhibition of COX activity (COX): 100% | inhibition at 10 µM (thromboxane synthase): 60% | overall cell killing activity against all cell lines tested (all cell lines tested): best overall cell killing activity

Reference: patent US7714151B2, “Aminated isoflavonoid derivatives and uses thereof” (Novogen Research Pty Ltd, priority 2002, dated 2010)
